Laboratory results taken from US8598367B2, “Nitrogen-containing heterocyclic compound and pest control agent” (Nippon Soda Co., Ltd., priority 2008, dated 2013).

How the values were obtained:
[1] = test system: Aphis gossypii; experiment: Test case 1 Efficacy against Aphis gossypii; assay type: in vivo; settings: 125 ppm emulsion (Formulation Example 2) applied to cucumbers parasitized with offspring; 25° C., humidity 65%; after five days
Text: Test case 1 Efficacy against Aphis gossypii
The test was repeated twice.

[2] = test system: Tetranychus urticae with organophosphate resistance; experiment: Test Case 2 Efficacy Against Tetranychus urticae; settings: 125 ppm wettable powder (Formulation Example 1) applied to bean leaf with female adults; 25° C., humidity 65%; after three days

With `Cc1nc(N(C)C)nc(OC(=O)N(C)C)c1C` [pirimicarb] as the compound, how does the insect mortality rate [1] read?
The insect mortality rate was 9%.

For `Cc1cc(Cl)ccc1N=CN(C)C` [chlordimeform], which insect mortality rate [2] is on record?
Its insect mortality rate is 9%.
